SMILES strings stand for the structures. pEC50: −log10 of the molar value.

Assay [1] has as its target T1, human ALX receptor (Homo sapiens, UniProt P25090).
T1 construct: expressed in transfected cells; host or cells: HEK293 (HEK293-hALXR-Gα16)
T1 sequence (P25090 1-351): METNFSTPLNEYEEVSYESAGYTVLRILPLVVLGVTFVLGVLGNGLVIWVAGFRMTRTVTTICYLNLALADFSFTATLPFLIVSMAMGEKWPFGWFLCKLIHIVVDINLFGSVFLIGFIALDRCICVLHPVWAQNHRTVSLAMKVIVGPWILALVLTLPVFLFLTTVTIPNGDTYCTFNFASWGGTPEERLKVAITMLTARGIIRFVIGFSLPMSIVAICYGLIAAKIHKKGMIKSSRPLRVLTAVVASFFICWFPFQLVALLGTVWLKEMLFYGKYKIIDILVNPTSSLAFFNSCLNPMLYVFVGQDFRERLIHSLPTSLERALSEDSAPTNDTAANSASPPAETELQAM
Briefly: Intracellular calcium measurements (FLIPR), agonistic activity in HEK293-hALXR-Gα16 cells. The class given is cell-based. As to conditions: Fluo-4 calcium FLIPR, normalized to WKYMVm 10 nM. In short, it runs like this:
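Agonist-induced calcium flux was recorded by FLIPR (488/540 nm) in HEK293-hALXR-Gα16 cells pre-loaded with Fluo-4 AM (1 μM, 60 min, 37°C). Peak signal above baseline, after subtracting buffer addition, was expressed relative to WKYMVm at 10 nM final.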

Assay [2] deals with T2, human FPRL2 (Homo sapiens, UniProt P25089).
T2 construct: expressed in transfected cells; host or cells: HEK293 (HEK293-hFPRL2-Gα16)
T2 sequence (P25089 1-353): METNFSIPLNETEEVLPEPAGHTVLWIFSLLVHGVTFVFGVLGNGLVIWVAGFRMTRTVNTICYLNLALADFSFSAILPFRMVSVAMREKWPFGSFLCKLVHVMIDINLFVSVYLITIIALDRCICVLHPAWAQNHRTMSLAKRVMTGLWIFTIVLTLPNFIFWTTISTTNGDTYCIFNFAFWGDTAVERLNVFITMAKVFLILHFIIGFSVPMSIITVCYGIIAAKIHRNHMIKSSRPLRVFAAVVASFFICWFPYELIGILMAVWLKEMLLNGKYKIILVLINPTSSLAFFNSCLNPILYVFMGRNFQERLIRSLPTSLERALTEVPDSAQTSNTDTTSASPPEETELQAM
Kind of assay: Intracellular calcium measurements (FLIPR), agonistic activity in HEK293-hFPRL2-Gα16 cells. Format: cell-based. As to conditions: Fluo-4 calcium FLIPR, normalized to GLY14-Humanin 100 nM. An outline of the steps:
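Peak values after baseline subtraction are expressed relative to 100 nM Gly14-Humanin; compounds diluted in assay buffer from 10 mM DMSO stocks.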

On to `CC(C)(C)C1CCC(NC(=O)C2C(C(=O)NCCCCN3CCCC3)C3C=CC2C32CC2)CC1` (stereo not drawn) [Example 342, (5R*)—N^5-(4-tert-Butyl-cyclohexyl)-(6R*)—N^6-(4-pyrrolidino-butyl)-(4S*,7R*)-[4,7-ethenylene-spiro[2.4]heptane]-5,6-dicarboxamide], for which the figures for the pEC50 in assay [1] and in assay [2] were below 5.62 and 7.00, respectively.
For `CC(=O)CCCNC(=O)[C@H]1[C@H](C(=O)NCCCCN2CCCC2)[C@H]2C=C[C@@H]1C21CC1` (racemic) [Example 140, (5R*)—N^5-(4-oxo-pentyl)-(6R*)—N^6-(4-pyrrolidin-1-yl-butyl)-(4S*,7R*)-[4,7-ethenylene-spiro[2.4]heptane]-5,6-dicarboxamide], the pEC50 in assay [1] was 6.13; in assay [2], 5.88.
For the compound `Cc1nc(CCNC(=O)[C@H]2[C@H](C(=O)Nc3ccc(Br)cc3)[C@@H]3C=C[C@H]2C32CC2)[nH]c1C` (relative stereo) [Example 64, (5R*)—N^5-(4-Bromophenyl)-(6R*)—N^6-(2-(4,5-dimethyl-1H-imidazol-2-yl)-ethyl)-(4S*,7R*)-[4,7-ethenylene-spiro[2.4]heptane]-5,6-dicarboxamide], the pEC50 in assay [1] was 7.72; in assay [2], 7.17.
For `NCc1cccc(CNC(=O)[C@H]2[C@H](C(=O)NCc3ccc(Br)cc3)[C@@H]3C=C[C@H]2C32CC2)c1` (racemic) [Example 308, (5R*)—N^5-(4-Bromophenyl-methyl)-(6R*)—N^6-(3-(aminomethyl)phenyl-methyl)-(4S*,7R*)-[4,7-ethenylene-spiro[2.4]heptane]-5,6-dicarboxamide] the same measures were 7.23 and 6.31.
The corresponding values for `COCCNC(=O)[C@H]1[C@H](C(=O)Nc2ccc(Br)cc2)[C@@H]2C=C[C@H]1C21CC1` [Example 31, (5R)—N^5-(4-Bromophenyl)-(6R)—N^6-(2-methoxy-ethyl)-(4S,7R)-[4,7-ethenylene-spiro[2.4]heptane]-5,6-dicarboxamide] are 8.30 and 5.85.
Turning to `Cc1ccc(CCNC(=O)C2C(C(=O)NCCCCN3CCCC3)C3C=CC2C32CC2)cc1` (stereo not drawn) [Example 381, (5R*)—N^5-(2-(4-Methylphenyl)ethyl)-(6R*)—N^6-(4-pyrrolidino-butyl)-(4S*,7R*)-[4,7-ethenylene-spiro[2.4]heptane]-5,6-dicarboxamide], the figures for the pEC50 in assay [1] and in assay [2] were 5.41 and 7.52, respectively.
`COc1ccc(NC(=O)C2C(C(=O)NCCCCN3CCCC3)C3C=CC2C32CC2)cc1` (racemic) [Example 115, (5R*)—N^5-(4-Methoxyphenyl)-(6R*)—N^6-(4-pyrrolidin-1-yl-butyl)-(4S*,7R*)-[4,7-ethenylene-spiro[2.4]heptane]-5,6-dicarboxamide]: the pEC50 is 8.70 in assay [1] and 6.69 in assay [2].
For `Cc1nc(CC(=O)NC[C@H]2[C@H](C(=O)Nc3ccc(Br)cc3)[C@@H]3C=C[C@H]2C32CC2)cs1` (racemic) [Example 180, (5R*)—N^5-(4-Bromo-phenyl)-(6R*)-6-[(2-(2-methyl-thiazol-4-yl)-acetylamino)-methyl]-(4S*,7R*)-[4,7-ethenylene-spiro[2.4]heptane]-5-carboxamide] the same measures were 6.60 and 6.05.
On to `CCOc1ccc(CNC(=O)C2C(C(=O)NCCCCN3CCCC3)C3C=CC2C32CC2)cc1` (stereo not drawn) [Example 386, (5R*)—N^5-(4-Ethoxyphenyl-methyl)-(6R*)—N^6-(4-pyrrolidino-butyl)-(4S*,7R*)-[4,7-ethenylene-spiro[2.4]heptane]-5,6-dicarboxamide], for which the pEC50 in assay [1] is 5.54; in assay [2], 6.60.
In the case of `CN(C)CCNC(=O)[C@H]1[C@H](C(=O)NCc2ccc(Br)cc2)[C@@H]2C=C[C@H]1C21CC1` (racemic) [Example 274, (5R*)—N^5-(4-Bromophenyl-methyl)-(6R*)—N^6-(2-dimethylamino-ethyl)-(4S*,7R*)-[4,7-ethenylene-spiro[2.4]heptane]-5,6-dicarboxamide], the values for the pEC50 in assay [1] and in assay [2] were 6.54 and 5.93, respectively.
The corresponding values for `Cc1cc(C)cc(CNC(=O)[C@H]2[C@H](C(=O)NCCCCN3CCCC3)[C@H]3C=C[C@@H]2C32CC2)c1` (racemic) [Example 358, (5R*)—N^5-(3,5-Dimethylphenyl-methyl)-(6R*)—N^6-(4-pyrrolidino-butyl)-(4S*,7R*)-[4,7-ethenylene-spiro[2.4]heptane]-5,6-dicarboxamide] are 5.10 and 6.75.
As for `CCCCCNC(=O)[C@H]1[C@H](C(=O)Nc2ccc(Br)cc2)[C@@H]2C=C[C@H]1C21CC1` (racemic) [Example 67, (5R*)—N^5-(4-Bromophenyl)-(6R*)—N^6-(pentyl)-(4S*,7R*)-[4,7-ethenylene-spiro[2.4]heptane]-5,6-dicarboxamide], the pEC50 in assay [1] was 7.47; in assay [2], below 4.60.
The corresponding values for `O=C(NCCCCN1CCCC1)[C@H]1[C@H](C(=O)NCc2nc(Br)cs2)[C@@H]2C=C[C@H]1C21CC1` (racemic) [Example 234, (5R*)—N^5-(4-Bromo-thiazol-2-yl-methyl)-(6R*)—N^6-(4-pyrrolidin-1-yl-butyl)-(4S*,7R*)-[4,7-ethenylene-spiro[2.4]heptane]-5,6-dicarboxamide] are 7.14 and 6.75.
For `O=C(NC1CCN(Cc2ccccc2)CC1)[C@H]1[C@H](C(=O)Nc2ccc(Br)cc2)[C@@H]2C=C[C@H]1C21CC1` (racemic) [Example 83, (5R*)—N^5-(4-Bromophenyl)-(6R*)—N^6—(N-benzyl-piperidin-4-yl)-(4S*,7R*)-[4,7-ethenylene-spiro[2.4]heptane]-5,6-dicarboxamide] the same measures were 6.91 and 6.17.
`Cc1nc(CCNC(=O)C2C(C(=O)Nc3ccc(Br)cc3)C3CCC2C32CC2)[nH]c1C` (stereo not drawn) [Example 112, (5R*)—N^5-(4-Bromophenyl)-(6R*)—N^6-(2-(4,5-dimethyl-1H-imidazol-2-yl)-ethyl)-(4S*,7R*)-[4,7-ethylene-spiro[2.4]heptane]-5,6-dicarboxamide]: the pEC50 is 8.08 in assay [1] and 7.24 in assay [2].
For `O=C(NCCCCN1CCCC1)[C@H]1[C@H](C(=O)Nc2cc(F)c(Br)c(F)c2)[C@@H]2C=C[C@H]1C21CC1` [Example 393, (5R)—N^5-(4-Bromo-3,5-difluorophenyl)-(6R)—N^6-(4-pyrrolidino-butyl)-(4S,7R)-[4,7-ethenylene-spiro[2.4]heptane]-5,6-dicarboxamide] the same measures were 5.92 and 7.80.
The corresponding values for `O=C(Nc1ncc(Br)s1)C1C(C(=O)NC2CCC(CO)CC2)C2CCC1C21CC1` (single isomer, unassigned) [Example 410] are 6.07 and 4.74.
Consider `O=C(NCCCCO)[C@H]1[C@H](C(=O)Nc2ccc(Br)cc2)[C@@H]2C=C[C@H]1C21CC1` (racemic) [Example 42, (5R*)—N^5-(4-Bromophenyl)-(6R*)—N^6-(4-hydroxy-butyl)-(4S*,7R*)-[4,7-ethenylene-spiro[2.4]heptane]-5,6-dicarboxamide], for which the results for the pEC50 in assay [1] and in assay [2] were 8.02 and 5.11, respectively.
For `O=C(NCCCCN1CCCC1)[C@H]1[C@H](C(=O)Nc2ccc(Br)c(Cl)c2)[C@@H]2C=C[C@H]1C21CC1` [Example 297, (5R)—N^5-(4-Bromo-3-chlorophenyl)-(6R)—N^6-(4-pyrrolidino-butyl)-(4S,7R)-[4,7-ethenylene-spiro[2.4]heptane]-5,6-dicarboxamide] the same measures were 6.44 and 7.55.
On to `O=C(NCCCCN1CCCC1)[C@H]1[C@H](C(=O)NCCc2ccccc2)[C@@H]2C=C[C@H]1C21CC1` (racemic) [Example 139, (5R*)—N^5-(2-Phenyl-ethyl)-(6R*)—N^6-(4-pyrrolidin-1-yl-butyl)-(4S*,7R*)-[4,7-ethenylene-spiro[2.4]heptane]-5,6-dicarboxamide], for which the values for the pEC50 in assay [1] and in assay [2] were 6.14 and 6.82, respectively.
As to `O=C(NCCF)[C@H]1[C@H](C(=O)Nc2ncc(Br)s2)[C@@H]2C=C[C@H]1C21CC1` (racemic) [Example 259, (5R*)—N^5-(5-Bromo-thiazol-2-yl)-(6R*)—N^6-(2-fluoro-ethyl)-(4S*,7R*)-[4,7-ethenylene-spiro[2.4]heptane]-5,6-dicarboxamide], the pEC50 in assay [1] was 6.45; in assay [2], below 4.60.
